# Laboratory results from PubChem BioAssay AID256 (DTP/NCI, 2004).
# Where “and” joins values, the source holds several entries; their conditions need not be identical. Equal entries are not always repeated. Inconclusive results and toxic doses are left out.
# Tested on: CD2F1 mice, L1210 leukemia ip, survival T/C
# Test: NCI In Vivo Anticancer Drug Screen. Data for tumor model L1210 Leukemia (intraperitoneal) in CD2F1 (CDF1) mice
# Settings: higher = longer survival
# Method in brief: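 Tumor-bearing mice (transplanted tumor) were split into treated and vehicle control groups, and the measured endpoint of each treated group was divided by that of its vehicle controls.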
# [1] = endpoint: mean survival time, dose: 100.0 mg/kg/injection, schedule: Q04DX002 (ip), vehicle: saline with Tween-80
# [2] = endpoint: mean survival time, dose: 100.0 mg/kg/injection, schedule: Q04DX003 (ip), vehicle: saline with Tween-80
# [3] = endpoint: mean survival time, dose: 200.0 mg/kg/injection, schedule: Q04DX003 (ip), vehicle: saline with Tween-80
# [4] = endpoint: mean survival time, dose: 50.0 mg/kg/injection, schedule: Q01DX009 (ip), vehicle: saline with Tween-80
# [5] = endpoint: mean survival time, dose: 100.0 mg/kg/injection, schedule: Q01DX009 (ip), vehicle: saline with Tween-80
# [6] = endpoint: mean survival time, dose: 200.0 mg/kg/injection, schedule: Q01DX009 (ip), vehicle: saline with Tween-80
# [7] = endpoint: mean survival time, dose: 400.0 mg/kg/injection, schedule: Q01DX009 (ip), vehicle: saline with Tween-80
smiles,measurement,setting,value
Nc1ccccc1Sc1ccc2c3c(cccc13)C(=O)N(c1ccccc1)C2=O,T/C,"endpoint: mean survival time, dose: 25.0 mg/kg/injection, schedule: Q04DX002 (ip), vehicle: saline with Tween-80",95 % of control
same,T/C,"endpoint: mean survival time, dose: 50.0 mg/kg/injection, schedule: Q04DX002 (ip), vehicle: saline with Tween-80",98 % of control
same,T/C,[1],87 % of control
Cc1cc(NC(=O)c2ccc(Cl)cc2)ccc1Cl,T/C,[2],97 % of control
same,T/C,[3],97 % of control
same,T/C,"endpoint: mean survival time, dose: 400.0 mg/kg/injection, schedule: Q04DX003 (ip), vehicle: saline with Tween-80",106 % of control
O=C(c1ccccc1)N1CC2CC3OC3c3cccc1c32 (configuration not stated),T/C,[4],102 % of control
same,T/C,[5],98 % of control
same,T/C,[6],94 % of control
Nc1nc(/C=C/c2ccc([N+](=O)[O-])cc2)c(-c2ccc(Cl)c(Cl)c2)c(=O)[nH]1,T/C,"endpoint: mean survival time, dose: 100.0 mg/kg/injection, schedule: Q01DX001 (ip), vehicle: saline with Tween-80",92 % of control
same,T/C,"endpoint: mean survival time, dose: 200.0 mg/kg/injection, schedule: Q01DX001 (ip), vehicle: saline with Tween-80",89 % of control
same,T/C,"endpoint: mean survival time, dose: 400.0 mg/kg/injection, schedule: Q01DX001 (ip), vehicle: saline with Tween-80",90 % of control
O=NNc1cnccn1,T/C,"endpoint: median survival time, dose: 3.12 mg/kg/injection, schedule: Q01DX009 (ip), vehicle: water",112 % of control
same,T/C,"endpoint: median survival time, dose: 6.25 mg/kg/injection, schedule: Q01DX009 (ip), vehicle: water",113 % of control and 109 % of control
same,T/C,"endpoint: median survival time, dose: 8.6 mg/kg/injection, schedule: Q01DX009 (ip), vehicle: water",121 % of control and 107 % of control
same,T/C,"endpoint: median survival time, dose: 11.0 mg/kg/injection, schedule: Q01DX009 (ip), vehicle: water",121 % of control and 124 % of control
same,T/C,"endpoint: median survival time, dose: 12.5 mg/kg/injection, schedule: Q01DX009 (ip), vehicle: water",120 % of control and 123 % of control
same,T/C,"endpoint: median survival time, dose: 14.4 mg/kg/injection, schedule: Q01DX009 (ip), vehicle: water",116 % of control and 112 % of control
same,T/C,"endpoint: median survival time, dose: 24.0 mg/kg/injection, schedule: Q01DX009 (ip), vehicle: water",124 % of control
same,T/C,"endpoint: median survival time, dose: 38.0 mg/kg/injection, schedule: Q01DX009 (ip), vehicle: water",221 % of control and 223 % of control
same,T/C,"endpoint: median survival time, dose: 40.0 mg/kg/injection, schedule: Q01DX009 (ip), vehicle: water",183 % of control
same,T/C,"endpoint: median survival time, dose: 50.0 mg/kg/injection, schedule: Q01DX009 (ip), vehicle: water",121 % of control
same,T/C,"endpoint: median survival time, dose: 100.0 mg/kg/injection, schedule: Q01DX009 (ip), vehicle: water",92 % of control
CCOC(=O)C(C(=O)OCC)c1cc(NC(=O)c2ccccc2)ccc1NC(=O)c1ccccc1,T/C,[5],87 % of control
same,T/C,[7],93 % of control
CCCC/C=C/C1CCCCC1C (configuration not stated),T/C,[4],100 % of control
same,T/C,[5],104 % of control
same,T/C,[6],108 % of control
NC(=S)N/N=C/c1cccc(CC(O)(C(F)(F)F)C(F)(F)F)n1,T/C,"endpoint: mean survival time, dose: 12.5 mg/kg/injection, schedule: Q04DX003 (ip), vehicle: saline with Tween-80",97 % of control
same,T/C,"endpoint: mean survival time, dose: 25.0 mg/kg/injection, schedule: Q04DX003 (ip), vehicle: saline with Tween-80",94 % of control
same,T/C,"endpoint: mean survival time, dose: 50.0 mg/kg/injection, schedule: Q04DX003 (ip), vehicle: saline with Tween-80",96 % of control
O=NC1C2C=CC(C2)C1Cl (configuration not stated),T/C,"endpoint: mean survival time, dose: 100.0 mg/kg/injection, schedule: Q01DX001 (ip), vehicle: saline",93 % of control
same,T/C,"endpoint: mean survival time, dose: 200.0 mg/kg/injection, schedule: Q01DX001 (ip), vehicle: saline",88 % of control
same,T/C,"endpoint: mean survival time, dose: 400.0 mg/kg/injection, schedule: Q01DX001 (ip), vehicle: saline",96 % of control
O=C(CCl)Nc1ccc(Cl)cc1,T/C,"endpoint: mean survival time, dose: 25.0 mg/kg/injection, schedule: Q01DX009 (ip), vehicle: Klucel (hydroxypropylcellulose) (HPC)",97 % of control
same,T/C,"endpoint: mean survival time, dose: 50.0 mg/kg/injection, schedule: Q01DX009 (ip), vehicle: Klucel (hydroxypropylcellulose) (HPC)",96 % of control
same,T/C,"endpoint: mean survival time, dose: 50.0 mg/kg/injection, schedule: Q04DX003 (ip), vehicle: Klucel (hydroxypropylcellulose) (HPC)",97 % of control
same,T/C,"endpoint: mean survival time, dose: 100.0 mg/kg/injection, schedule: Q04DX003 (ip), vehicle: Klucel (hydroxypropylcellulose) (HPC)",100 % of control
same,T/C,[2],106 % of control
Cc1ccc2c(c1Oc1ccc(S(N)(=O)=O)cc1)C(=O)c1ccccc1C2=O,T/C,[5],103 % of control
same,T/C,"endpoint: mean survival time, dose: 100.0 mg/kg/injection, schedule: Q04DX003 (ip), vehicle: saline sonified",88 % of control
same,T/C,[2],90 % of control
same,T/C,[6],101 % of control
same,T/C,[7],97 % of control
same,T/C,"endpoint: mean survival time, dose: 400.0 mg/kg/injection, schedule: Q04DX003 (ip), vehicle: saline sonified",107 % of control
NNC(=O)c1cc(NN)ccn1,T/C,[4],102 % of control
same,T/C,[5],100 % of control
same,T/C,[2],100 % of control
same,T/C,[3],98 % of control
Cc1ccc(NC(=O)/C=C/c2ccccc2)c(C)c1,T/C,[1],94 % of control
same,T/C,"endpoint: mean survival time, dose: 200.0 mg/kg/injection, schedule: Q04DX002 (ip), vehicle: saline with Tween-80",94 % of control
same,T/C,"endpoint: mean survival time, dose: 400.0 mg/kg/injection, schedule: Q04DX002 (ip), vehicle: saline with Tween-80",94 % of control
